Source: patent publication US7915291B2, “Hepatitis C virus inhibitors” (Bristol-Myers Squibb Company, priority 2002, dated 2011)

How the values were obtained:
[1] = system: HCV replicon in Huh7 cells; assay: HCV replicon cell-based assay; parameters: species or system HCV strain 1B; conditions: Hepatitis C virus, Huh-7; HCV replicon, Huh7 cells; read-out: EC50 range
[2] = molecular target: HCV NS3/4A protease complex, BMS strain (UniProt P27958, C1454S/C1711G, species not given/STRAIN_BMS); assay: Recombinant HCV NS3/4A protease complex FRET peptide assay (BMS strain); assay type: biochemical, HCV genotype 1a; conditions: NS3/4A BMS strain; read-out: IC50 range
In short: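 Percent inhibition taken from the linear-range fluorescence slope relative to uninhibited control, read kinetically for about 15 min at 25° C. Enzyme (2-3 nM, BMS NS3/4A complex, lysine-tailed, Ni-NTA purified) met compound for 1 min before 2 μM FRET depsipeptide substrate started cleavage.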

Row | SMILES | EC50 [1] | IC50 [2]
1 | C=C[C@@H]1C[C@]1(NC(=O)[C@@H]1C[C@@H](Oc2nccc3ccc(C)cc23)CN1C(=O)[C@@H](NC(=O)OC(C)(C)C)C(C)(C)C)C(=O)NS(=O)(=O)C1CC1 [Compound 259] | < 100 nM | < 100 nM
2 | C=C[C@@H]1C[C@]1(NC(=O)[C@@H]1C[C@@H](Oc2nccc3ccc(OC)cc23)CN1C(=O)[C@@H](NC(=O)OC(C)(C)C)C(C)(C)C)C(=O)NS(=O)(=O)C1CC1 [Compound 260] | 100 to 1000 nM | < 100 nM
3 | C=C[C@@H]1C[C@]1(NC(=O)[C@@H]1C[C@@H](Oc2nccc3cc(OC)c(F)cc23)CN1C(=O)[C@@H](NC(=O)OC(C)(C)C)C(C)(C)C)C(=O)NS(=O)(=O)C1CC1 [Compound 261] | < 100 nM | < 100 nM
4 | C=C[C@@H]1C[C@]1(NC(=O)[C@@H]1C[C@@H](Oc2cc3c(Cl)nccc3cc2OC)CN1C(=O)[C@@H](NC(=O)OC(C)(C)C)C(C)(C)C)C(=O)NS(=O)(=O)C1CC1 [Compound 262] | < 100 nM | < 100 nM
5 | C=C[C@@H]1C[C@]1(NC(=O)[C@@H]1C[C@@H](Oc2nccc3cccc(C)c23)CN1C(=O)[C@@H](NC(=O)OC(C)(C)C)C(C)(C)C)C(=O)NS(=O)(=O)C1CC1 [Compound 263] | 100 to 1000 nM | 100 to 1000 nM
6 | C=C[C@@H]1C[C@]1(NC(=O)[C@@H]1C[C@@H](Oc2nccc3cccc(OC)c23)CN1C(=O)[C@@H](NC(=O)OC(C)(C)C)C(C)(C)C)C(=O)NS(=O)(=O)C1CC1 [Compound 264] | 1000 to 10000 nM | 100 to 1000 nM
7 | C=C[C@@H]1C[C@]1(NC(=O)[C@@H]1C[C@@H](Oc2nccc3c4c(ccc23)CCO4)CN1C(=O)[C@@H](NC(=O)OC(C)(C)C)C(C)(C)C)C(=O)NS(=O)(=O)C1CC1 [Compound 265] | < 100 nM | < 100 nM
8 | C=C[C@@H]1C[C@]1(NC(=O)[C@@H]1C[C@@H](Oc2nccc3c2ccc2ccoc23)CN1C(=O)[C@@H](NC(=O)OC(C)(C)C)C(C)(C)C)C(=O)NS(=O)(=O)C1CC1 [Compound 266] | < 100 nM | < 100 nM
9 | C=C[C@@H]1C[C@]1(NC(=O)[C@@H]1C[C@@H](Oc2nccc3c4c(ccc23)OCC4)CN1C(=O)[C@@H](NC(=O)OC(C)(C)C)C(C)(C)C)C(=O)NS(=O)(=O)C1CC1 [Compound 267] | < 100 nM | < 100 nM
10 | C=C[C@@H]1C[C@]1(NC(=O)[C@@H]1C[C@@H](Oc2nccc3c2ccc2occc23)CN1C(=O)[C@@H](NC(=O)OC(C)(C)C)C(C)(C)C)C(=O)NS(=O)(=O)C1CC1 [Compound 268] | < 100 nM | < 100 nM
11 | C=C[C@@H]1C[C@]1(NC(=O)[C@@H]1C[C@@H](Oc2nccc3c(OC(F)(F)F)cccc23)CN1C(=O)[C@@H](NC(=O)OC(C)(C)C)C(C)(C)C)C(=O)NS(=O)(=O)C1CC1 [Compound 269] | 100 to 1000 nM | < 100 nM
12 | C=C[C@@H]1C[C@]1(NC(=O)[C@@H]1C[C@@H](Oc2nccc3c(C(F)(F)F)cccc23)CN1C(=O)[C@@H](NC(=O)OC(C)(C)C)C(C)(C)C)C(=O)NS(=O)(=O)C1CC1 [Compound 270] | 100 to 1000 nM | < 100 nM
13 | C=C[C@@H]1C[C@]1(NC(=O)[C@@H]1C[C@@H](Oc2nccc3c(N4CCOCC4)cccc23)CN1C(=O)[C@@H](NC(=O)OC(C)(C)C)C(C)(C)C)C(=O)NS(=O)(=O)C1CC1 [Compound 271] | 100 to 1000 nM | < 100 nM
14 | C=C[C@@H]1C[C@]1(NC(=O)[C@@H]1C[C@@H](Oc2nccc3c(OC)c(OC)ccc23)CN1C(=O)[C@@H](NC(=O)OC(C)(C)C)C(C)(C)C)C(=O)NS(=O)(=O)C1CC1 [Compound 272] | < 100 nM | < 100 nM
15 | C=C[C@@H]1C[C@]1(NC(=O)[C@@H]1C[C@@H](Oc2nccc3cc(OC)c(Cl)cc23)CN1C(=O)[C@@H](NC(=O)OC(C)(C)C)C(C)(C)C)C(=O)NS(=O)(=O)C1CC1 [Compound 273] | < 100 nM | < 100 nM
16 | C=C[C@@H]1C[C@]1(NC(=O)[C@@H]1C[C@@H](Oc2nccc3c(F)c(OC)ccc23)CN1C(=O)[C@@H](NC(=O)OC(C)(C)C)C(C)(C)C)C(=O)NS(=O)(=O)C1CC1 [Compound 274] | 100 to 1000 nM | < 100 nM
17 | C=C[C@@H]1C[C@]1(NC(=O)[C@@H]1C[C@@H](Oc2nccc3c(Cl)c(OC)ccc23)CN1C(=O)[C@@H](NC(=O)OC(C)(C)C)C(C)(C)C)C(=O)NS(=O)(=O)C1CC1 [Compound 275] | < 100 nM | < 100 nM
18 | C=C[C@@H]1C[C@]1(NC(=O)[C@@H]1C[C@@H](Oc2nccc3c(OC)c(Cl)ccc23)CN1C(=O)[C@@H](NC(=O)OC(C)(C)C)C(C)(C)C)C(=O)NS(=O)(=O)C1CC1 [Compound 276] | < 100 nM | < 100 nM
19 | C=C[C@@H]1C[C@]1(NC(=O)[C@@H]1C[C@@H](Oc2ncc(Cl)c3cc(OC)ccc23)CN1C(=O)[C@@H](NC(=O)OC(C)(C)C)C(C)(C)C)C(=O)NS(=O)(=O)C1CC1 [Compound 278] | < 100 nM | < 100 nM

Row | SMILES | EC50 [1] | IC50 [2]
20 | C=C[C@@H]1C[C@]1(NC(=O)[C@@H]1C[C@@H](Oc2ncc(OC)c3cc(OC)ccc23)CN1C(=O)[C@@H](NC(=O)OC(C)(C)C)C(C)(C)C)C(=O)NS(=O)(=O)C1CC1 [Compound 279] | < 100 nM | < 100 nM
21 | C=C[C@@H]1C[C@]1(NC(=O)[C@@H]1C[C@@H](Oc2nccc3cc(O)ccc23)CN1C(=O)[C@@H](NC(=O)OC(C)(C)C)C(C)(C)C)C(=O)NS(=O)(=O)C1CC1 [Compound 280] | < 100 nM | < 100 nM
22 | C=C[C@@H]1C[C@]1(NC(=O)[C@@H]1C[C@@H](Oc2ncc(Cl)c3ccccc23)CN1C(=O)[C@@H](NC(=O)OC(C)(C)C)C(C)(C)C)C(=O)NS(=O)(=O)C1CC1 [Compound 281] | < 100 nM | < 100 nM
23 | C=C[C@@H]1C[C@]1(NC(=O)[C@@H]1C[C@@H](Oc2nccc3cc(OC(F)(F)F)ccc23)CN1C(=O)[C@@H](NC(=O)OC(C)(C)C)C(C)(C)C)C(=O)NS(=O)(=O)C1CC1 [Compound 282] | 100 to 1000 nM | < 100 nM
24 | C=C[C@@H]1C[C@]1(NC(=O)[C@@H]1C[C@@H](Oc2ccc3c(OC)cnc(Cl)c3c2)CN1C(=O)[C@@H](NC(=O)OC(C)(C)C)C(C)(C)C)C(=O)NS(=O)(=O)C1CC1 [Compound 283] | 100 to 1000 nM | < 100 nM
25 | C=C[C@@H]1C[C@]1(NC(=O)[C@@H]1C[C@@H](Oc2ncc(Cl)c3ccc(OC)cc23)CN1C(=O)[C@@H](NC(=O)OC(C)(C)C)C(C)(C)C)C(=O)NS(=O)(=O)C1CC1 [Compound 284] | 10000 to 100000 nM | 100 to 1000 nM
26 | C=CC1CC1(NC(=O)C1CC(Oc2nccc3c(OC(F)F)cccc23)CN1C(=O)C(NC(=O)OC(C)(C)C)C(C)(C)C)C(=O)NS(=O)(=O)C1CC1 (stereo not shown) [Compound 285] | < 100 nM | < 100 nM
27 | C=C[C@@H]1C[C@]1(NC(=O)[C@@H]1C[C@@H](Oc2nccc3c4c(ccc23)OCCO4)CN1C(=O)[C@@H](NC(=O)OC(C)(C)C)C(C)(C)C)C(=O)NS(=O)(=O)C1CC1 [Compound 286] | < 100 nM | < 100 nM
28 | C=C[C@@H]1C[C@]1(NC(=O)[C@@H]1C[C@@H](Oc2nccc3c4c(ccc23)OC(F)(F)O4)CN1C(=O)[C@@H](NC(=O)OC(C)(C)C)C(C)(C)C)C(=O)NS(=O)(=O)C1CC1 [Compound 287] | 100 to 1000 nM | < 100 nM
29 | C=C[C@@H]1C[C@]1(NC(=O)[C@@H]1C[C@@H](Oc2nccc3cc4c(cc23)OC(F)(F)O4)CN1C(=O)[C@@H](NC(=O)OC(C)(C)C)C(C)(C)C)C(=O)NS(=O)(=O)C1CC1 [Compound 288] | 1000 to 10000 nM | < 100 nM
30 | CC[C@@H]1C[C@]1(NC(=O)[C@@H]1C[C@@H](Oc2nccc3c4c(ccc23)OC(F)(F)O4)CN1C(=O)[C@@H](NC(=O)OC(C)(C)C)C(C)(C)C)C(=O)NS(=O)(=O)C1CC1 [Compound 289] | 100 to 1000 nM | < 100 nM
31 | CC[C@@H]1C[C@]1(NC(=O)[C@@H]1C[C@@H](Oc2nccc3c4c(ccc23)OCCO4)CN1C(=O)[C@@H](NC(=O)OC(C)(C)C)C(C)(C)C)C(=O)NS(=O)(=O)C1CC1 [Compound 290] | < 100 nM | < 100 nM
32 | CC[C@@H]1C[C@]1(NC(=O)[C@@H]1C[C@@H](Oc2ncc(OC)c3ccccc23)CN1C(=O)[C@@H](NC(=O)OC(C)(C)C)C(C)(C)C)C(=O)NS(=O)(=O)C1CC1 [Compound 291] | < 100 nM | < 100 nM
33 | CC[C@@H]1C[C@]1(NC(=O)[C@@H]1C[C@@H](Oc2nccc3c(OC)cccc23)CN1C(=O)[C@@H](NC(=O)OC(C)(C)C)C(C)(C)C)C(=O)NS(=O)(=O)C1CC1 [Compound 292] | 100 to 1000 nM | < 100 nM
34 | CC[C@@H]1C[C@]1(NC(=O)[C@@H]1C[C@@H](Oc2nccc3c(C)cccc23)CN1C(=O)[C@@H](NC(=O)OC(C)(C)C)C(C)(C)C)C(=O)NS(=O)(=O)C1CC1 [Compound 293] | 100 to 1000 nM | < 100 nM
35 | CC[C@@H]1C[C@]1(NC(=O)[C@@H]1C[C@@H](Oc2nccc3c(Cl)cccc23)CN1C(=O)[C@@H](NC(=O)OC(C)(C)C)C(C)(C)C)C(=O)NS(=O)(=O)C1CC1 [Compound 294] | 100 to 1000 nM | < 100 nM
36 | CC[C@@H]1C[C@]1(NC(=O)[C@@H]1C[C@@H](Oc2nccc3c(C(F)(F)F)cccc23)CN1C(=O)[C@@H](NC(=O)OC(C)(C)C)C(C)(C)C)C(=O)NS(=O)(=O)C1CC1 [Compound 295] | 1000 to 10000 nM | 100 to 1000 nM
37 | CC[C@@H]1C[C@]1(NC(=O)[C@@H]1C[C@@H](Oc2nccc3ccc(C)cc23)CN1C(=O)[C@@H](NC(=O)OC(C)(C)C)C(C)(C)C)C(=O)NS(=O)(=O)C1CC1 [Compound 296] | 100 to 1000 nM | < 100 nM
38 | CC[C@@H]1C[C@]1(NC(=O)[C@@H]1C[C@@H](Oc2nccc3cccc(C)c23)CN1C(=O)[C@@H](NC(=O)OC(C)(C)C)C(C)(C)C)C(=O)NS(=O)(=O)C1CC1 [Compound 297] | 1000 to 10000 nM | 100 to 1000 nM
